In patent US5378838A, “Benzodiazepine cholecystokinin antagonists” (Merck & Co., Inc., priority 1993, dated 1995):
Where two headings read alike, the source gives them in different places.

Legend:
CCK receptor (pancreas) = biological target: T1, CCK receptor (pancreas) (Rattus norvegicus, UniProt P30551); assay: CCK Receptor Binding (Pancreas), inhibition of 125I-CCK-8 binding; parameters: species or system rat (male Sprague-Dawley)
T1 construct: The whole pancreas was dissected free of fat tissue and was homogenized; from tissue; host or cells: whole pancreas membranes of male Sprague-Dawley rats
T1 sequence (P30551 1-444): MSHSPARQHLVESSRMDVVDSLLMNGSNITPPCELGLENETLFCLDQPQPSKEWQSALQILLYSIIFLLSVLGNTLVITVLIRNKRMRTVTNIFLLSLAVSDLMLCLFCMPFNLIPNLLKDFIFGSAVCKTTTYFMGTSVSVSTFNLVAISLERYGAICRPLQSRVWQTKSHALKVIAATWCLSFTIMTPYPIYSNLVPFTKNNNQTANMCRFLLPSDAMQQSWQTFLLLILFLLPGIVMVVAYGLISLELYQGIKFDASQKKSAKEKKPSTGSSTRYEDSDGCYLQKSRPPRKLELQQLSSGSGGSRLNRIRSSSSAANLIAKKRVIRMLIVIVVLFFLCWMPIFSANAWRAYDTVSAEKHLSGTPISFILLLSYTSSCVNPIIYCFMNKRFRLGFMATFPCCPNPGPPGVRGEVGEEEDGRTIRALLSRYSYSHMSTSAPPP
Experimental: 1. CCK Receptor Binding (Pancreas)
Male Sprague-Dawley rats (150-200 g) were sacrificed by decapitation. The whole pancreas was dissected free of fat tissue and was homogenized in 25 volumes of ice-cold 10 mM Hepes buffer with 0.1% soya bean trypsin inhibitor (pH 7.4 at 25° C.) with a Kinematica Polytron. The homogenates were centrifuged at 47,800 g for 10 min. Pellets were resuspended in 10 volumes of binding assay buffer (20 mM Hepes, 1 mM EGTA, 5 mM MgCl2, 150 mM NaCl, bacitracin 0.25 mg/ml, soya bean trypsin inhibitor 0.1 mg/ml, and bovine serum albumin 2 mg/ml, pH 6.5 at 25° C.) using a teflon homogenizer, 15 strokes at 500 rpm. The homogenate was further diluted in binding assay buffer to give a final concentration of 0.5 mg original wet weight/l ml buffer. […] All assays were run in duplicate. The reaction mixtures were incubated at 25° C. for 2 hours and the reaction terminated by rapid filtration (Brandell 24 well cell harvester) over Whatman GF/C filters, washing 3×4 mls with ice-cold 100 mM NaCl. The radioactivity on the filters was counted with a LKB gamma counter.
Drug displacement studies were performed with at least 10 concentrations of compounds of formula 1 and the IC50 values were determined by regression analysis.

CCK receptor (brain) = biological target: T2, CCK receptor (brain) (Cavia porcellus, UniProt H0VZC5); assay: CCK Receptor Binding (Brain), inhibition of 125I-CCK-8 binding; parameters: species or system guinea pig (male Hartley); details: guinea pig cortex, 50 pM 125I-CCK-8, pH 6.5, 25° C., 2 hours
T2 construct: the cortex was removed and homogenized in 25 mL ice-cold 0.32M sucrose; from tissue; host or cells: cortex P2 membranes of male Hartley guinea pigs
T2 sequence (H0VZC5 1-426): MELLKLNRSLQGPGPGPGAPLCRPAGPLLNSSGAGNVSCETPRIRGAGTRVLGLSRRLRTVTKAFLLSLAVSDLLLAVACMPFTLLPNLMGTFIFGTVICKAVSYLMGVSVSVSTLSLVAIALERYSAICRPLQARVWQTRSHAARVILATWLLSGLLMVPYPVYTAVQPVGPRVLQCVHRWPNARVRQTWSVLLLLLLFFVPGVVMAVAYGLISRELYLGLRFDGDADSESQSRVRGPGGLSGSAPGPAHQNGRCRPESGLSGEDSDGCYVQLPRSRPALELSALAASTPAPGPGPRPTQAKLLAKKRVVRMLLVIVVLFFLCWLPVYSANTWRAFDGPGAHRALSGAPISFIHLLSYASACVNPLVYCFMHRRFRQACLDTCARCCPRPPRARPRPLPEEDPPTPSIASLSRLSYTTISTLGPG
Experimental: CCK-8 sulphated was radiolabelled and the binding was performed according to the description for the pancreas method with minor modifications.
Male Hartley guinea pigs (300-500g) were sacrificed by decapitation and the cortex was removed and homogenized in 25 mL ice-cold 0.32M sucrose. The homogenates were centrifuged at 1000 g for 10 minutes and the resulting supernatant was recentrifuged at 20,000 g for 20 minutes. […] All assays were run in duplicate. The reaction mixtures were incubated at 25° C. for 2 hours and then the reaction was terminated on Whatman GF/C filters by rapid filtration (Brandell 24 well cell Harvester) with 3×5 ml washes of cold 100 mM NaCl. The radioactivity on the filters was then counted with a LKB gamma counter.
Drug displacement studies were performed with at least 10 concentrations of compounds of formula 1 and the IC50 values were determined by regression analysis. IC50 refers to the concentration of the compound required to inhibit 50% of specific binding of ^125 I-CCK-8.

[1] = rat pancreas, 50 pM 125I-CCK-8, pH 6.5, 25° C., 2 hours, read-out: IC50 125I-CCK Pancreas
[2] = read-out: IC50 125I-CCK Pancreas, rat pancreas, 50 pM 125I-CCK-8, pH 6.5, 25° C., 2 hours

| IC50 (CCK receptor (pancreas); [1]) [nM] | SMILES | IC50 (CCK receptor (pancreas)) [nM] | IC50 (CCK receptor (brain)) [nM] | IC50 (CCK receptor (pancreas); [2]) [nM] |
| --- | --- | --- | --- | --- |
| – | COC(=O)[C@@H](NC(=O)OC(C)(C)C)c1cccc(NC(=O)N[C@@H]2N=C(c3ccccc3)c3ccccc3N(C)C2=O)c1 [Example 7, N-{(3R)-1,3-Dihydro-1-methyl-2-oxo-5-phenyl-1H-1,4-benzodiazepin-3-yl}-N'-{[3-((1S)-tert-butyloxycarbonylamino-1-methoxycarbonyl)methylphenyl]-urea}] | > 3000 | 1980 | – |
| – | COC(=O)[C@@H](N)Cc1cccc(NC(=O)N[C@@H]2N=C(c3ccccc3)c3ccccc3N(C)C2=O)c1 [Example 2, N-{(3R)-1,3-Dihydro-1-methyl-2-oxo-5-phenyl-1H-1,4-benzodiazepin-3-yl}-N'-{[3-((2S)-amino-2-methoxycarbonyl)ethylphenyl]-urea}] | > 3000 | 114 | – |
| – | COC(=O)CC(N)c1cccc(NC(=O)N[C@@H]2N=C(c3ccccc3)c3ccccc3N(C)C2=O)c1 (stereo partly drawn) [Example 12, N-{(3R)-1,3-Dihydro-1-methyl-2-oxo-5-phenyl-1H-1,4-benzodiazepin-3-yl}-N,- {[3-((1R,S)-amino-2-methoxycarbonyl)ethylphenyl]-urea}] | – | > 3000 | – |
| – | COC(=O)CC(NC(=O)OC(C)(C)C)c1cccc(NC(=O)N[C@@H]2N=C(c3ccccc3)c3ccccc3N(C)C2=O)c1 (stereo partly drawn) [Example 11, N-{(3R)-1,3-Dihydro-1-methyl-2-oxo-5-phenyl-1 H-1,4-benzodiazepin-3-yl}-N'-{[3-((1R,S)-tert-butyloxycarbonylamino-2-methoxycarbonyl)ethylphenyl]-urea}] | > 3000 | 386 | – |
| – | CN1C(=O)[C@H](NC(=O)Nc2cccc([C@H](N)C(=O)O)c2)N=C(c2ccccc2)c2ccccc21 [Example 9, N-{(3R)-1,3-Dihydro-1-methyl-2-oxo-5-phenyl-1H-1,4-benzodiazepin-3-yl}-N'-{[3-((1S)-amino-1-carboxy)methylphenyl]-urea}] | > 3000 | 1330 | – |
| – | COC(=O)C1(N)CCc2c(cccc2NC(=O)N[C@@H]2N=C(c3ccccc3)c3ccccc3N(C)C2=O)C1 (stereo partly drawn) [Example 22, N-{(3R)-1,3-Dihydro-1-methyl-2-oxo-5-phenyl-1H-1,4-benzodiazepin-3-yl}-N'-{[5-(methyl-2-(R,S)-amino-1,2,3,4-tetrahydro-2-naphthoate)]-urea}] | > 3000 | 2160 | – |
| – | COC(=O)C1(N)CCc2cc(NC(=O)N[C@@H]3N=C(c4ccccc4)c4ccccc4N(C)C3=O)ccc2C1 (some centres unmarked) [Example 19] | > 3000 | > 3000 | – |
| – | CN1C(=O)[C@H](NC(=O)Nc2ccc3c(c2)CCC(N)(C(=O)O)C3)N=C(c2ccccc2)c2ccccc21 (stereo partly drawn) [Example 20, N-{(3R)-1,3-Dihydro-1-methyl-2-oxo-5-phenyl-1H-1,4-benzodiazepin-3-yl}-N'-{[6-(2-(R,S)-amino-1,2,3,4-tetrahydro-2-naphthoic acid)]-urea}] | > 3000 | 3520 | – |
| – | CN1C(=O)[C@H](NC(=O)Nc2cccc(C(N)CC(=O)O)c2)N=C(c2ccccc2)c2ccccc21 (stereo partly drawn) [Example 13, N-{(3R)-1,3-Dihydro-1-methyl-2-oxo-5-phenyl-1H-1,4-benzodiazepin-3-yl}-N'-{[3-((1R,S)-amino-2-carboxy)ethylphenyl]-urea}] | > 3000 | > 3000 | – |
| 961 | COC(=O)[C@H](Cc1cccc(NC(=O)N[C@@H]2N=C(C3CCCCC3)c3ccccc3N(C)C2=O)c1)NC(=O)OC(C)(C)C [Example 4, N-{(3R)-1,3-Dihydro-1-methyl-2-oxo-5-cyclohexyl-1H-1,4-benzodiazepin-3-yl}-N'-{[3-((2S)-tert-butyloxycarbonylamino-2-methoxycarbonyl)ethylphenyl]-urea}] | – | 3.9 | – |
| – | COC(=O)C1(N)CCc2ccc(NC(=O)N[C@@H]3N=C(c4ccccc4)c4ccccc4N(C)C3=O)cc2C1 (stereo partly drawn) [Example 16, N-{(3R)-1,3-Dihydro-1-methyl-2-oxo-5-phenyl-1H-1,4-benzodiazepin-3-yl}-N'-{[7-(methyl-2-(R,S)-amino-1,2,3,4-tetrahydro-2-naphthoate)]-urea}] | > 3000 | 148 | – |
| – | CN1C(=O)[C@H](NC(=O)Nc2ccc3c(c2)CC(N)(C(=O)O)CC3)N=C(c2ccccc2)c2ccccc21 (stereo partly drawn) [Example 17, N-{(3R)-1,3-Dihydro-1-methyl-2-oxo-5-phenyl-1H-1,4-benzodiazepin-3-yl}-N'-{[7-(2-(R,S)amino-1,2,3,4-tetrahydro-2-naphthoic acid)]-urea}] | > 3000 | 28.4 | – |
| – | COC(=O)[C@H](Cc1cccc(NC(=O)N[C@@H]2N=C(c3ccccc3)c3ccccc3N(C)C2=O)c1)NC(=O)OC(C)(C)C [Example 1, N-{(3R)-1,3-Dihydro-1-methyl-2-oxo-5-phenyl-1H-1,4-benzodiazepin-3-yl}-N'-{[3-((2S)-tertbutyloxycarbonylamino-2-methoxycarbonyl)ethylphenyl]urea}] | > 3000 | 29.6 | – |
| – | COC(=O)C1(NC(=O)OC(C)(C)C)CCc2c(cccc2NC(=O)N[C@@H]2N=C(c3ccccc3)c3ccccc3N(C)C2=O)C1 (stereo partly drawn) [Example 21, N-{(3R)-1,3-Dihydro-1-methyl-2-oxo-5-phenyl-1H-1,4-benzodiazepin-3-yl}-N'-{[5-(methyl-2-(R,S)-tert-butyloxycarbonylamino-1,2,3,4-tetrahydro-2-naphthoate)]-urea}] | – | 1690 | > 3000 |
| – | COC(=O)C1(NC(=O)OC(C)(C)C)CCc2cc(NC(=O)N[C@@H]3N=C(c4ccccc4)c4ccccc4N(C)C3=O)ccc2C1 (stereo partly drawn) [Example 18, N-{(3R)-1,3-Dihydro-1-methyl-2-oxo-5-phenyl-1H-1,4-benzodiazepin-3-yl}-N'-{[6-(methyl-2-(R,S)-tert-butyloxycarbonylamino-1,2,3,4-tetrahydro-2-naphthoate)]-urea}] | – | > 3000 | – |
| – | CN1C(=O)[C@H](NC(=O)Nc2cccc([C@@H](N)C(=O)O)c2)N=C(c2ccccc2)c2ccccc21 [Example 10, N-{(3R)-1,3-Dihydro-1-methyl-2-oxo-5-phenyl-1H-1,4-benzodiazepin-3-yl}-N'-{[3-((1R)-amino-1-carboxy)methylphenyl]-urea}] | > 3000 | 3590 | – |
| – | CN1C(=O)[C@H](NC(=O)Nc2cccc(C[C@H](N)C(=O)O)c2)N=C(c2ccccc2)c2ccccc21 [Example 3, N-{(3R)-1,3-Dihydro-1-methyl-2-oxo-5-phenyl-1H-1,4-benzodiazepin-3-yl}-N'-{[3-((2S)-amino-2-carboxy)ethylphenyl]-urea}] | – | 61.3 | > 3000 |
| – | COC(=O)[C@@H](N)c1cccc(NC(=O)N[C@@H]2N=C(c3ccccc3)c3ccccc3N(C)C2=O)c1 [Example 8, N-{(3R)-1,3-Dihydro-1-methyl-2-oxo-5-phenyl-1H-1,4-benzodiazepin-3-yl}-N'-{[3-((1S )-amino-1-methoxycarbonyl)methylphenyl]-urea}] | > 3000 | 958 | – |
| – | COC(=O)C1(NC(=O)OC(C)(C)C)CCc2ccc(NC(=O)N[C@@H]3N=C(c4ccccc4)c4ccccc4N(C)C3=O)cc2C1 (stereo partly drawn) [Example 15, N-{(3R)-1,3-Dihydro-1-methyl-2-oxo-5-phenyl-1H-1,4-benzodiazepin-3-yl}-N'-{[7-(methyl-2-(R,S)-tert-butyloxycarbonylamino-1,2,3,4-tetrahydro-2-naphthoate)]-urea}] | – | 126 | > 3000 |
| 1790 | CN1C(=O)[C@H](NC(=O)Nc2cccc(C[C@H](N)C(=O)O)c2)N=C(C2CCCCC2)c2ccccc21 [Example 6, N-{(3R)-1,3-Dihydro-1-methyl-2-oxo-5-cyclohexyl-1H-1,4-benzodiazepin-3-yl}-N'-{[3-((2S )amino-2-carboxy)ethylphenyl]-urea}] | – | 1.1 | – |
